Measured values reported in patent US20110118224A1, “USE OF STEROID SULFATASE INHIBITORS FOR THE TREATMENT OF PRETERM LABOR” (priority 2008, published 2011).

How the values were obtained:
[1] = Placental barrier crossing ability measurement (whole body autoradiography of 14C-labeled compound); assay type: in vivo, rat; settings: for Passage of the placental barrier: compound and/or its main metabolite
Experimental: The ability of a steroid sulfatase inhibitor according to the invention to cross the placental barrier can be investigated as follows. This assay was performed with a steroid sulfatase inhibitor according to the invention (Estradiol Sulfamate or E2MATE) which is used for the treatment of symptoms related to estrogen deficiency in postmenopausal or hysterectomized women.
Six female albino rats received a single intravenous bolus dose of 0.47 mg ^14C-labeled Estradiol Sulfamate per kg. Six female albino, 3 pregnant albino and 4 female pigmented rats received 1 mg ^14C-labeled Estradiol Sulfamate per kg as an intragastic dose. […] Animals were deeply frozen in a mixture of hexane and dry ice and embedded into a block of carboxymethyl cellulose, which was frozen and stored at approximately −20° C. External standards were used for semi-quantitative evaluation of radioluminograms and were prepared by spiking an erythrocyte concentrate with different concentrations of ^14C-radioactivity. Pores were drilled into a separate block of carboxymethyl cellulose, filled with external standards and frozen at approximately −20° C. Whole body sagittal sections of 50 μm thickness were taken through each animal and the external standard block using a Leica CM 3600 cryomicrotome. After freeze drying of the sections in the cryostat for a minimum time of 48 hours, they were exposed to an Imaging Plate (IP) for a period of 4 to 24 hours and the IP was scanned using the bioimaging analyzer BAS 2000. For evaluation, the external standard samples were related to a colored scale using the software AIDA (Advanced Image Data Analysis, version 3.10, Raytest, Germany), each color representing a specific radioactive concentration (MBq). The different tissues were compared semi-quantitatively to the external standards and concentration ranges were determined.

[2] = tested on: time-mated female Sprague-Dawley rats; test: Developmental toxicity in the rat; assay type: in vivo
Description: The safety of a use of a steroid sulfatase inhibitor according to the invention, measured by no or minor effects induced on foetus development during gestation in pregnant rat can be investigated as follows.
The effects of a steroid sulfatase inhibitor according to the invention (Estradiol Sulfamate or E2MATE) on the embryonic and foetal development of the rat was investigated when administered during the period of organogenesis (Days 6 to 17 of gestation). Four groups each of 20 time-mated female Sprague-Dawley rats were dosed with 0 (Control), 7.5, 22 or 60 μg/kg/day of Estardiol sulfamate from Day 6 to Day 17 of gestation. A further group of twenty females was dosed with ethinylestradiol at 80 μg/kg/day and acted as a positive control.
Clinical observations, bodyweight and food consumption were recorded and the progress and outcome of pregnancy was assessed on Day 20 of gestation. Foetal pathology to assess abnormalities and variations was carried out on all foetuses.

[3] = tested on: time-mated female New Zealand White rabbits; test: Developmental toxicity in the rabbit; assay type: in vivo
Description: The safety of a use of a steroid sulfatase inhibitor according to the invention, measured by no or minor effects induced on foetus development during gestation in pregnant rabbit can be investigated as follows.
The effects of a steroid sulfatase inhibitor according to the invention (Estradiol Sulfamate or E2MATE) on the embryonic and foetal development of the rabbit when administered during the period of organogenesis (Days 6 to 18 of gestation). Four groups each of between 20 to 25 time-mated female New Zealand White rabbits were dosed with 0 (Control), 5, 15 or 50 μg/kg/day from Day 6 to Day 18 of gestation. A further group of twenty females was administered with ethinylestradiol at 50 μg/kg/day and acted as a positive control. Clinical observations, bodyweight and food consumption were recorded and the progress and outcome of pregnancy was assessed on Day 28 of gestation. Foetal pathology to assess abnormalities and variations was carried out on all foetuses

[4] = 1 h post-dose, 1 mg/kg i.g., pregnant albino rats, semi-quantitative
[5] = dosed Day 6 to Day 17 of gestation
[6] = dosed Day 6 to Day 18 of gestation

SMILES | Distribution of radiolabel in pregnant albino animals compared to female albino rats ([1]; 1 mg/kg 14C-labeled, intragastric, pregnant (18 day p.c.) albino rats) | 14C-concentrations in pregnant animals versus non-pregnant animals ([1]; 1 h post-dose, 1 mg/kg i.g.) | 14C-radiolabel concentration in foetal liver [1, 4] | 14C-radiolabel concentration in foetal membranes [1, 4] | 14C-radiolabel concentration in mammary gland [1, 4] | 14C-radiolabel concentration in placenta [1, 4] | 14C-radiolabel concentration in the foetus [1, 4] | 14C-concentrations (foetus, foetal liver, placenta, mammary gland, foetal membranes) ([1]; 7 h and 1 day post dose, 1 mg/kg i.g., pregnant albino rats) | general radiolabel concentration in pregnant animals versus non-pregnant animals ([1]; after 7 h, 1 mg/kg i.g.) | Passage of the placental barrier ([1]; pregnant albino rats) | Effects in foetuses / teratogenic action ([2]; at about 22 μg/kg/day) | No Observed Adverse Effect Level (NOAEL) for foetal development [2, 5] | No Observed Effect Level (NOEL) for female toxicity [2, 5] | Observed female toxicity at the higher doses ([2]; doses above 7.5 μg/kg/day (22 or 60 μg/kg/day)) | No Observed Adverse Effect Level (NOAEL) for embryofoetal development [3, 6] | No Observed Adverse Effect Level for maternal toxicity during the period of organogenesis [3, 6] | Dosage-related maternal effects at higher doses ([3]; doses above 5 μg/kg/day (15 or 50 μg/kg/day)) | Tolerance by the females compared with ethinylestradiol (positive control) ([3]; ethinylestradiol at 50 μg/kg/day)
C[C@]12CC[C@@H]3c4ccc(OS(N)(=O)=O)cc4CC[C@H]3[C@@H]1CC[C@@H]2O [Estradiol Sulfamate] | similar | slightly higher | high range | medium | medium | high range | high range | between the higher low and the lower high range | lower | passed the placental barrier reversibly | some minor effects in foetuses but no teratogenic action | about 22 μg/kg/day | about 7.5 μg/kg/day | limited to reduced food consumption and an associated reduction in bodyweight gain during gestation | about 15 μg/kg/day | about 5 μg/kg/day | limited to lower bodyweight gain and food consumption | generally better tolerated
CC12CCC3c4ccc(OS(N)(=O)=O)cc4CCC3C1CCC2=O (stereo not shown) [Estrone Sulfamate] |  |  |  |  |  |  |  |  |  | passed the placental barrier reversibly |  |  |  |  |  |  |  | 
